The target of experiment [1] is Pim 2 (Homo sapiens, UniProt Q9P1W9). Nature of the experiment: Pim 2 AlphaScreen assay (high ATP). (Alpha assays give light when donor and acceptor beads are brought close together.)
Experiment [2] relates to KMS11 (human myeloma cell line). The experiment can be described thus: Cell Proliferation Assay (CellTiter-Glo, 3 days). In kind it is cell-based. The note with it: KMS-11, 72 h, KMS11-luc cells. Put shortly:
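EC50 from CellTiter-Glo luminescence after 3-day, 37° C compound treatment of KMS11 cells seeded at 2000 per well in IMDM plus 10% FBS.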

Experiment [3] addresses Pim 1 (Homo sapiens, UniProt P11309). Nature of the experiment: Pim 1 AlphaScreen assay (high ATP).
The target in experiment [4] is Pim 3 (Homo sapiens, UniProt Q86V86). Nature of the experiment: Pim 3 AlphaScreen assay (high ATP).

By IC50 is commonly meant the concentration that gives 50% inhibition. Low values mean greater potency in that assay, high ones weaker potency in that assay. Usually EC50 stands for the concentration that produces a half-maximal response. Read a low EC50 as higher potency in that assay.

Chain of Pim 2 (Q9P1W9 whole entry): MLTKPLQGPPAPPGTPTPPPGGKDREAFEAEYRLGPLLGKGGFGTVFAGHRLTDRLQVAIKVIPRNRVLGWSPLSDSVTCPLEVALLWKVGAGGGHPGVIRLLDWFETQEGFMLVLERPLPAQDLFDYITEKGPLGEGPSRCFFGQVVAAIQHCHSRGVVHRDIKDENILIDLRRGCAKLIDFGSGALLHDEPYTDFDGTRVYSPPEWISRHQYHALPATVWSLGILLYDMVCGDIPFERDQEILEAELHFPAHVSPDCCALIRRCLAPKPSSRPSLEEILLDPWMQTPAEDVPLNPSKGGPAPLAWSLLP
Chain of Pim 1 (P11309 whole entry): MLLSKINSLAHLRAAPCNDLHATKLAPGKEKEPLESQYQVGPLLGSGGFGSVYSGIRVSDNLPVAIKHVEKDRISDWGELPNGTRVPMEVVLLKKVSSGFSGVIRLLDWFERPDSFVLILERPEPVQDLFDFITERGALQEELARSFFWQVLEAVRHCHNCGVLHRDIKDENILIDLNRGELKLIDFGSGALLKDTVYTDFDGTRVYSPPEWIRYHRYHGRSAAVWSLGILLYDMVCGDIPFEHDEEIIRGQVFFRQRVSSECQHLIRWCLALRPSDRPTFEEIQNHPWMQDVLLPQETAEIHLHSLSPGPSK

For the compound `C[C@@H]1C[C@H](N)C[C@H](c2ccncc2NC(=O)c2nc(-c3c(F)cc(C4COC4)cc3F)c(F)cc2N)C1` [Example 241, 3-amino-N-(4-((1R,3S,5S)-3-amino-5-methylcyclohexyl)pyridin-3-yl)-6-(2,6-difluoro-4-(oxetan-3-yl)phenyl)-5-fluoropicolinamide], the IC50 was 1.24 nM in experiment [1], 0.02 nM in experiment [3] and 0.61 nM in experiment [4]. This compound had an EC50 in experiment [2] of 30 nM.

The values above are taken from patent US20120225062A1 (priority 2011, published 2012).
